From patent publication US12629370B2, “Treatment of prostate cancer” (Sumitomo Pharma Co., Ltd., priority 2016, dated 2026)
Entries after “also recorded” stand apart in the source; their conditions may differ.

Experiments:
[1] = tested on: FSH; experiment: Example 8: FSH levels; format: in vivo, human; conditions: for FSH Mean (Std Dev) / FSH Median: Leuprorelin Q12W;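 as to all read-outs here: FSH determined at every study visit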
[2] = tested on: serum testosterone; experiment: Example 8: serum testosterone in men with advanced prostate cancer, versus leuprolide acetate; format: in vivo, human; conditions: for Testosterone Mean (Std Dev) / Testosterone Median / Median testosterone: Leuprorelin Q12W
Excerpt: Eligible men were aged ≥18 years with a histologically confirmed diagnosis of prostate adenocarcinoma, and were candidates for ADT for the management of hormone-sensitive prostate cancer with one of the following clinical disease states: advanced localized disease not suitable for primary surgical or radiation therapy; evidence of PSA biochemical or clinical relapse following primary surgery or radiation therapy of curative intent; or newly diagnosed metastatic disease that was asymptomatic and without visceral involvement. […] Patients with advanced, localized MON1 or M1 disease with clinically significant symptoms or visceral involvement, who required immediate GnRH therapy, chemotherapy, or radiation therapy were not eligible for the trial.
Serum testosterone levels were measured at each visit.

[3] = tested on: patients with advanced prostate cancer; experiment: Example 8: quality of life, Aging Male Survey (AMS); format: in vivo, human; conditions: Leuprorelin Q12W
Method: Quality of life (QoL) was assessed throughout the study and the follow-up period. The 25-item Prostate Cancer Module of the European Organization for Research and Treatment of Cancer Quality of Life Questionnaire (EORTC QLQ-PR25), Aging Male Survey (AMS), and core 30-item EORTC Quality of Life Questionnaire (EORTC QLQ-C30) were completed at screening, day 1 of weeks 5, 13, 25, 37, and 49, and, if applicable, at the follow-up visits.

[4] = tested on: patients with advanced prostate cancer; experiment: Example 8: treatment-emergent adverse events (safety population)
Method: The core tablets were coated with a film coating comprising hypromellose 2910 (21.36 mg), titanium dioxide (2.4 mg), and red ferric oxide (0.06 mg).
For patients receiving leuprolide acetate (leuprorelin), on-treatment study visits occurred at baseline (day 1, week 1), day 1 of weeks 2, 3, and 5, and then every 4 weeks until week 25, and then at 12 week intervals (week 37 and 49). Patients on leuprorelin received their final injection at week 37, day 1, and the week 49, day 1 visit was considered the end of leuprorelin exposure. Patients receiving leuprorelin at visits at 16 (EOT), 20 (follow-up visit), and 24 (EOS) weeks after the last leuprorelin injection.
Efficacy and safety analyses were conducted using a safety population (received ≥1 dose of study drug). […] Safety was assessed by recording the incidence, severity, and types of treatment-emergent adverse events; by physical examination (including slit lamp examination of the anterior eye); and by evaluating changes from baseline in weight, vital signs, 12-lead electrocardiogram (ECG), and clinical laboratory parameters. […] Adverse events were coded using the Medical Dictionary for Regulatory Activities version 19.0 and graded according to National Cancer Institute Common Terminology Criteria version 4.03 (Tables 7 and 8). Safety-related haematology, chemistry, and urinalysis measurements were taken at each study visit and analysed at a central laboratory (LabCorp). Phospholipidosis was assessed as part of the safety assessments.

[5] = tested on: PSA; experiment: Example 8: PSA response; format: in vivo, human
Excerpt: Eligible men were aged ≥18 years with a histologically confirmed diagnosis of prostate adenocarcinoma, and were candidates for ADT for the management of hormone-sensitive prostate cancer with one of the following clinical disease states: advanced localized disease not suitable for primary surgical or radiation therapy; evidence of PSA biochemical or clinical relapse following primary surgery or radiation therapy of curative intent; or newly diagnosed metastatic disease that was asymptomatic and without visceral involvement. Additional inclusion criteria at screening included: eugonadal serum testosterone >150 ng/dl (5.2 nmol/L); serum PSA concentration >2 ng/ml (or, when applicable, >0.2 ng/ml following radical prostatectomy or >2 ng/mL above the post-radiotherapy nadir following radiotherapy); body mass index ≥18.0 at screening and/or baseline (i.e., the subject's BMI prior to treatment commencing); and Eastern Cooperative Oncology Group (ECOG) performance status of 0 or 1. Patients with advanced, localized MON1 or M1 disease with clinically significant symptoms or visceral involvement, who required immediate GnRH therapy, chemotherapy, or radiation therapy were not eligible for the trial.
PSA levels were measured at each visit.

## CCNC(=O)[C@@H]1CCCN1C(=O)[C@H](CCCNC(=N)N)NC(=O)[C@H](CC(C)C)NC(=O)[C@@H](CC(C)C)NC(=O)[C@H](Cc1ccc(O)cc1)NC(=O)[C@H](CO)NC(=O)[C@H](Cc1c[nH]c2ccccc12)NC(=O)[C@H](Cc1c[nH]cn1)NC(=O)[C@@H]1CCC(=O)N1 [Leuprorelin, leuprolide acetate]
[1]; Baseline
  FSH Mean (Std Dev): 19.688 (19.1894) IU/L
  FSH Median: 14.500 IU/L
[1]; Week 2, Day 1
  FSH Mean (Std Dev): 7.650 (5.4542) IU/L
  FSH Median: 5.150 IU/L
[1]; Week 5, Day 1
  FSH Mean (Std Dev): 2.946 (1.4428) IU/L
  FSH Median: 2.550 IU/L
[1]; Week 13, Day 1
  FSH Mean (Std Dev): 4.625 (2.5594) IU/L
  FSH Median: 3.600 IU/L
[1]; Week 25, Day 1
  FSH Mean (Std Dev): 5.043 (2.8221) IU/L
  FSH Median: 4.400 IU/L
[1]; Week 49, Day 1
  FSH Mean (Std Dev): 5.145 (2.8201) IU/L
  FSH Median: 4.250 IU/L
[1]; after 48 weeks of treatment
  median FSH: ~4.2 mIU/mL
[2]; Baseline
  Testosterone Mean (Std Dev): 11.363 (5,0204) nmol/L
  Testosterone Median: 11.120 nmol/L
[2]; EOS
  Median testosterone: 13.5 ng/dL
[2]; EOT
  Median testosterone: 9.8 ng/dL
[2]; End of Study
  Testosterone Mean (Std Dev): 1.695 (3.0345) nmol/L
  Testosterone Median: 0.470 nmol/L
[2]; End of Treatment
  Testosterone Mean (Std Dev): 0.641 (0.9616) nmol/L
  Testosterone Median: 0.340 nmol/L
[2]; Follow-Up
  Testosterone Mean (Std Dev): 0.992 (2.2948) nmol/L
  Testosterone Median: 0.340 nmol/L
[2]; Follow-up visit
  Median testosterone: 9.8 ng/dL
[2]; Week 49, Day 1
  Testosterone Mean (Std Dev): 0.478 (0.6313) nmol/L
  Testosterone Median: 0.300 nmol/L
[2]; leuprolide acetate 22.5 mg SC
  course of serum testosterone levels: rose during the first 1-2 weeks of therapy then declined to castration levels by Week 5 Day 1; also recorded: rose during the first 1 to 2 weeks of therapy then declined to castrate levels by Week 5 Day 1
[3]; Baseline
  AMS total score, mean: 28.3
[3]; EOS
  AMS total score after treatment, mean (95% CI) percent change from baseline: 49.9 (21.0-78.7) %
[3]; EOT
  AMS total score after treatment, mean (95% CI) percent change from baseline: 61.0 (22.7-99.2) %
[3]; Follow-up
  AMS total score after treatment, mean (95% CI) percent change from baseline: 53.8 (18.2-89.4) %
[3]; W5, D1
  AMS total score, mean percent change from baseline: 10.1%
[3]; W13, D1
  AMS total score, mean percent change from baseline: 21.9%
[3]; W25, D1
  AMS total score, mean percent change from baseline: 47.0%
[3]; W37, D1
  AMS total score, mean percent change from baseline: 49.4%
[3]; W49, D1
  AMS total score, mean percent change from baseline: 60.0%
[4]; Leuprorelin Q12W
  Cerebral haemorrhage, Grade ≥3: 0 n (%)
  Cerebrovascular accident, Grade ≥3: 0 n (%)
  Death (Table 7): 1 (4) n (%)
  Death, Grade ≥3 (Table 8): 0 n (%)
  Musculoskeletal pain, Grade ≥3: 0 n (%)
  Sudden death, Grade ≥3: 0 n (%)
[4]; in vivo
  Acute coronary syndrome, Grade ≥3: 0 n (%)
  Adverse event resulting in study drug discontinuation: 0 n (%)
  Alanine aminotransferase increased, Grade ≥3: 0 n (%)
  Any adverse event: 23 (96) n (%)
  Arthralgia, Grade ≥3 (Table 8): 0 n (%)
  Aspartate aminotransferase increased, Grade ≥3: 0 n (%)
  Atrial flutter, Grade ≥3: 0 n (%)
  Bladder cancer, Grade ≥3: 0 n (%)
  Cervical vertebral fracture, Grade ≥3: 0 n (%)
  Diabetes mellitus, Grade ≥3: 1 (4) n (%)
  Drug-related adverse event: 18 (75) n (%)
  Fatigue, Grade ≥3 (Table 8): 0 n (%)
  Gamma-glutamyltransferase increased, Grade ≥3: 0 n (%)
  Grade ≥3 adverse event (Table 7): 2 (8) n (%)
  Hypercalcaemia, Grade ≥3: 0 n (%)
  Hypertension, Grade ≥3: 0 n (%)
  Hypotension, Grade ≥3: 0 n (%)
  Inguinal hernia, Grade ≥3: 0 n (%)
  Joint dislocation, Grade ≥3: 0 n (%)
  Metastases to bone, Grade ≥3: 0 n (%)
  Myocardial infarction, Grade ≥3: 1 (4) n (%)
  Non-cardiac chest pain, Grade ≥3: 0 n (%)
  Osteoarthritis, Grade ≥3: 0 n (%)
  Patients with at least 1 Grade ≥3 adverse events (Table 8): 2 (8) n (%)
  Procedural pain, Grade ≥3: 0 n (%)
  Sepsis, Grade ≥3: 0 n (%)
  Serious adverse event: 2 (8) n (%)
  Syncope, Grade ≥3: 0 n (%)
  Transient ischaemic attack, Grade ≥3: 0 n (%)
  Urinary tract infection, Grade ≥3: 0 n (%)
  hot flush (most common adverse event), patients: 15 (63%) n (%)
[5]; Leuprolide Q12W
  Median time from first dose to PSA nadir: 20.5 Weeks
[5]; after 4 weeks of treatment
  patients with ≥50% serum PSA reduction: 20%
  patients with ≥90% serum PSA reduction: 0%
